This note sets out measurements from patent US6210901A, “Specific binding substances for antibodies and their use for immunoassays or vaccines” (Roche Diagnostics GmbH, priority 1994, dated 2001).

Data set [1] relates to antibodies which are directed against the core-epitope of the HCV virus. Nature of the data set: Immunoassay (streptavidin tube, peroxidase/ABTS) with biotinylated peptides; reactivity relative to the natural epitope core2m. It counts as binding. More on the design: key to serum A rel. reactivity / serum B rel. reactivity: ratio to reference antigen core2m at the same concentration. As to conditions: for pos. control rel. reactivity: positive control serum, relative to core2m at same concentration; for serum A rel. reactivity: positive serum A; for serum B rel. reactivity: positive serum B. On the procedure:
Procedure for an immunoassay using biotinylated binding substances according to the invention against antibodies which are directed against the core-epitope of the HCV virus.
In the binding substances that were used one or several CO--NH peptide binding groups were replaced according to the invention (core2mI-core2mVI)compared to the natural epitope "core2m".
20 μl serum was placed in each case in streptavidin-coated ES 22 tubes from the Boehringer Mannheim Company (negative serum, positive serum, positive sera A-C). Then 1000 μl peptide solution (core 2m or core 2m I-VII concentration 100 ng/ml in potassium phosphate buffer 40 mmol/l, pH 7.0) was added by pipette and allowed to stand for 60 min in an ES 22 instrument from the Boehringer Mannheim Company. After 60 min incubation the peptide/serum solution is removed by pipette and the tubes are washed with test wash solution: 40 mmol/l potassium phosphate buffer, pH 7.0. Then 1000 μl peroxidase conjugate solution (peroxidase conjugated to an anti Fcγ antibody, 0.5 U/ml) is added by pipette and incubated for a further 60 min. The conjugate solution is removed by pipette and the tube is washed with washing solution. Afterwards 1000 μl ABTS solution (1.9 mmol/l) is added by pipette and it is incubated for a further 60 min. After 60 min incubation the solution is pipetted from the tube into a photometer and measured at 405 nm. […] The reactivities are derived from the measured result of the immunoassay relative to a standard curve.
The relative concentration used of the peptide antigens I-VI was derived from their HPLC integrals. The reactivity of the antigens I-VI was determined relative to the reference antigen core2m at the same concentration.

The next data set deals with pancreatin. Nature of the data set: HCV core2m stress with pancreatin (protease degradation, analytical HPLC). The following applies: for Area after 55 min (HPLC peptide peak) / Area after 125 min (HPLC peptide peak): pancreatin c = 1 mg/ml, 50 μl to 200 μl peptide. It counts as in vitro ADME. An excerpt: The protease stability of a binding substance according to the invention can be determined by exposing it to e.g. pancreatin, a mixture of frequently occurring proteases (including carboxy-peptidase A and B, trypsin, pepsin, chymotrypsin, elastase) or pronase (including aminopeptidase, carboxypeptidase, alkaline and neutral proteinase). The reduced enzymatic degradation of the binding substance can be determined by HPLC analysis of the appearance of peptide fragments over time.
Experimental procedure for core2m digestion with pancreatin.
Firstly core2m solutions were prepared in distilled water at an approximate c=1-3 mg/ml. These solutions were injected into the analytical HPLC (injection volume=40 μl).
These solutions were now diluted such that the area had to be […] when injected again into the HPLC. e.g. Area of the core2m IV solution was 600 000 on the analytical HPLC for an injection volume of 40 μl. Now two parts of this solution are diluted with one part of distilled water.
In each case 200 μl of these adjusted core2m solutions were admixed with 50 μl pancreatin solution (c=1 mg/ml).
A sample of these solutions was injected into the analytical HPLC after 55 min and after 125 min. As a reference a 200 μl sample of each core2m solution was admixed with 50 μl distilled water and injected into the analytical HPLC.
The percentage degradation of the respective peptide can be determined from the areas of the peptide peaks in the analytical HPLC.
Core2m solutions were adjusted to HPLC areas of 400 000 in 40 μl
Pancreatin solution c = 1 mg/ml in H2 O
200 μl of the adjusted core2m solution was allowed to react with 50

In the case of Bi-XUZUPQDVKFP4 QIVGG V [core2mIV], in data set [1], the “pos. control rel. reactivity” value came out at 0.370, the “serum A rel. reactivity” value came out at 0.250 and the “serum B rel. reactivity” value is recorded as 0.210. Besides, in the data set with pancreatin, the “Area after 55 min (HPLC peptide peak)” value is 3057359 and the “Area after 125 min (HPLC peptide peak)” value came out at 2715127. Further, in the data set with pancreatin (pancreatin), the “% (percentage resistance towards protease degradation) after 55 min” value came to 90% and the “% (percentage resistance towards protease degradation) after 125 min” value came out at 80%.
As for “Bi-XUZUPQDVKFPGGGQIVGGV [core2m, reference compound]”, in data set [1], the “pos. control rel. reactivity” value is 1.140, the “serum A rel. reactivity” value is 1.310 and the “serum B rel. reactivity” value is listed as 1.170. Moreover, the “Serum C rel. reactivity” value in data set [1] (positive serum C) came out at 1.140. Besides, in the data set with pancreatin, the “Area after 55 min (HPLC peptide peak)” value is 0 and the “Area after 125 min (HPLC peptide peak)” value amounted to 0. In the data set with pancreatin (pancreatin), the “% (percentage resistance towards protease degradation) after 55 min” value turned out to be 0% and the “% (percentage resistance towards protease degradation) after 125 min” value is 0%. Further, the “resistance towards protease degradation” value in the data set on pancreatin (pancreatin, 55 min and 125 min) amounted to 0%.
Take Bi-XUZUPQDVKFPGGGQIVI V [core2mI]: the “binding of the artificial epitopes (in words)” value in data set [1] (modified epitopes, Example 1) is “bind specifically and selectively”. Further, in data set [1], the “pos. control rel. reactivity” value came out at 1.140, the “serum A rel. reactivity” value is reported as 0.621 and the “serum B rel. reactivity” value came out at 0.959. In the data set on pancreatin, the “Area after 55 min (HPLC peptide peak)” value is reported as 3252704 and the “Area after 125 min (HPLC peptide peak)” value came to 2460332. In the data set on pancreatin (pancreatin), the “% (percentage resistance towards protease degradation) after 55 min” value was determined as 100% and the “% (percentage resistance towards protease degradation) after 125 min” value stood at 76%.
